The record followed here is ChEMBL document CHEMBL3045009, “Synthesis and Biological Activity of the Functional Derivatives of 3- and 4-(Dimethyl-aminomethyl)-1,2-dithiolanes” (1992).

Assay type in all cases: functional
In one experiment the test system is Spodoptera litura. Nature of the experiment: Insecticidal activity against Spodoptera litura assessed as mortality at 500 ppm. The following applies: for mortality at 500 ppm: Spodoptera litura.
The subject of experiment [1] is Chilo suppressalis. Description: Insecticidal activity against Chilo suppressalis (rice stem borer) assessed as mortality at 50 ug/g administered as topical application.
The subject of the next experiment is Nilaparvata lugens. Description: Insecticidal activity against Nilaparvata lugens (brown planthopper) assessed as mortality at 50 ppm. The following applies: for mortality at 50 ppm: Nilaparvata lugens.
Another experiment relates to Culex pipiens molestus. Nature of the experiment: Insecticidal activity against Culex pipiens molestus assessed as mortality at 5 ppm. As to conditions: for mortality at 5 ppm: Culex pipiens.
The next experiment has as its system Tetranychus urticae. Nature of the experiment: Acaricidal activity against Tetranychus urticae (two-spotted spider mite) assessed as mortality at 500 ppm. As to conditions: for mortality at 500 ppm: Tetranychus urticae.
Experiment [2] relates to Chilo suppressalis. Nature of the experiment: Insecticidal activity against Chilo suppressalis (rice stem borer) assessed as mortality compound administered as topical application.

`CNC(=O)SCCC(CN(C)C)SC(=O)NC` (centres undefined): the figures for the mortality at 500 ppm with Spodoptera litura and with Tetranychus urticae were 0% and 30%, respectively. Moreover, the mortality in the experiment on Chilo suppressalis [1] worked out at 100%. In the experiment on Nilaparvata lugens, the mortality at 50 ppm was 100%. Also, the mortality at 5 ppm with Culex pipiens molestus was determined as 5%.
Take `CCOP(=O)(OCC)[C@]1(C#N)SC[C@@H](CN(C)C)CS1.O=C(O)C(=O)O`: the mortality at 500 ppm is 70% with Spodoptera litura and 100% in the experiment on Tetranychus urticae. In the experiment with Chilo suppressalis [1], the mortality is 100%. Besides, the mortality at 50 ppm in the experiment with Nilaparvata lugens was 100%. Moreover, the mortality at 5 ppm in the experiment with Culex pipiens molestus worked out at 100%.
In the case of `CC(C)NC(=O)SCC(CSC(=O)NC(C)C)CN(C)C.O=C(O)C(=O)O`, the mortality at 500 ppm with Spodoptera litura turned out to be 0%. Moreover, the mortality in the experiment with Chilo suppressalis [1] was found to be 100%; with Nilaparvata lugens, 0%; in the experiment on Tetranychus urticae it was 90%. Moreover, in the experiment with Culex pipiens molestus, the mortality at 5 ppm was found to be 100%. Also, the LD50 in the experiment with Chilo suppressalis [2] worked out at 30.5 mg/kg.
Consider `CSCCC(CN(C)C)SC` (centres undefined), for which the mortality is 0% with Spodoptera litura; 0% in the experiment with Chilo suppressalis [1]; 10% in the experiment on Nilaparvata lugens; 0% in the experiment on Culex pipiens molestus; 20% in the experiment with Tetranychus urticae.
For `CCN(CC)C(=O)[C@]1(C#N)SC[C@H](CN(C)C)CS1`, the mortality in the experiment on Spodoptera litura came to 100%; in the experiment on Chilo suppressalis [1], 100%; in the experiment with Nilaparvata lugens it was 100%; in the experiment on Culex pipiens molestus, 100%; in the experiment with Tetranychus urticae, 90%. In addition, in the experiment with Chilo suppressalis [2], the LD50 was found to be 5.6 mg/kg.
For `CN(C)C[C@H]1CS[C@](C#N)(c2ccc(Cl)cc2)SC1`, the mortality at 500 ppm with Spodoptera litura was 0%; with Tetranychus urticae it was 70%. The mortality with Chilo suppressalis [1] is reported as 100%. Moreover, the mortality at 50 ppm in the experiment with Nilaparvata lugens worked out at 100%. The mortality at 5 ppm with Culex pipiens molestus was 100%.
For `CN(C)CC(CS)CS.O=C(O)C(=O)O`, the mortality at 500 ppm in the experiment on Spodoptera litura came out at 30%; in the experiment with Tetranychus urticae, 100%. In the experiment on Chilo suppressalis [1], the mortality is on record as 100%. Besides, the mortality at 50 ppm with Nilaparvata lugens stood at 100%. Moreover, the mortality at 5 ppm with Culex pipiens molestus came to 100%.
As to `CC(C)NC(=S)SCC(CSC(=S)NC(C)C)CN(C)C`, the mortality at 500 ppm with Spodoptera litura stood at 50%; in the experiment on Tetranychus urticae, 80%. The mortality in the experiment with Chilo suppressalis [1] is on record as 100%. In addition, the mortality at 50 ppm in the experiment on Nilaparvata lugens is 100%. Also, the mortality at 5 ppm with Culex pipiens molestus was found to be 100%. For the same molecule, in the experiment on Chilo suppressalis [2], the LD50 was 12.7 mg/kg.
As for `CN(C)CC(CCSC(=O)c1ccccc1)SC(=O)c1ccccc1.Cl` (centres undefined), the mortality is on record as 50% in the experiment with Spodoptera litura and 100% in the experiment with Chilo suppressalis [1]. In addition, the mortality at 50 ppm with Nilaparvata lugens amounted to 100%. Besides, the mortality at 5 ppm in the experiment with Culex pipiens molestus was 95%. Moreover, the mortality at 500 ppm with Tetranychus urticae was 100%.
Regarding `CN(C)C[C@H]1CS[C@@](C#N)(c2ccc(Cl)cc2)SC1`, the results for the mortality at 500 ppm with Spodoptera litura and in the experiment on Tetranychus urticae were 0% and 90%, respectively. Besides, the mortality in the experiment with Chilo suppressalis [1] was 100%. Further, the mortality at 50 ppm in the experiment with Nilaparvata lugens amounted to 100%. In the experiment with Culex pipiens molestus, the mortality at 5 ppm amounted to 100%.
`CCOC(=O)CSCC(CSCC(=O)OCC)CN(C)C.O=C(O)C(=O)O`: the values for the mortality at 500 ppm with Spodoptera litura and in the experiment on Tetranychus urticae were 0% and 80%, respectively. Further, the mortality in the experiment on Chilo suppressalis [1] was determined as 0%. Moreover, the mortality at 50 ppm in the experiment with Nilaparvata lugens was determined as 40%. Besides, in the experiment with Culex pipiens molestus, the mortality at 5 ppm amounted to 0%.
For the molecule `CN(C)C1CSSSC1.O=C(O)C(=O)O` [THIOCYCLAM HYDROGEN OXALATE], the mortality at 500 ppm amounted to 20% in the experiment with Spodoptera litura and 80% with Tetranychus urticae. The mortality in the experiment with Chilo suppressalis [1] came out at 100%. Also, the mortality at 50 ppm in the experiment with Nilaparvata lugens is 100%. Further, the mortality at 5 ppm in the experiment on Culex pipiens molestus amounted to 100%.
For `CCOC(=O)C1SCC(CN(C)C)CS1` (mixture of isomers), the figures for the mortality at 500 ppm in the experiment with Spodoptera litura and in the experiment with Tetranychus urticae were 0% and 20%, respectively. Moreover, the mortality in the experiment on Chilo suppressalis [1] was 0%. Also, the mortality at 50 ppm with Nilaparvata lugens was determined as 90%. In the experiment with Culex pipiens molestus, the mortality at 5 ppm was 0%.
Regarding `CN(C)CC1CS[S+]([O-])C1.O=C(O)C(=O)O` (centres undefined), the mortality at 500 ppm in the experiment with Spodoptera litura was 70%; in the experiment with Tetranychus urticae, 100%. The mortality in the experiment on Chilo suppressalis [1] was found to be 100%. In addition, the mortality at 50 ppm in the experiment on Nilaparvata lugens came to 100%. For the same molecule, the mortality at 5 ppm in the experiment on Culex pipiens molestus came to 0%.
Regarding `CCOC(=O)[C@H]1SC[C@H](CN(C)C)CS1.O=C(O)C(=O)O`, the mortality at 500 ppm was 0% in the experiment on Spodoptera litura and 100% with Tetranychus urticae. In addition, the mortality in the experiment on Chilo suppressalis [1] is listed as 0%. For the same molecule, in the experiment on Nilaparvata lugens, the mortality at 50 ppm amounted to 30%. Besides, the mortality at 5 ppm in the experiment with Culex pipiens molestus was determined as 5%.
Regarding `CC(=O)SCCC(CN(C)C)SC(C)=O` (centres undefined), the results for the mortality at 500 ppm with Spodoptera litura and in the experiment on Tetranychus urticae were 10% and 100%, respectively. Further, the mortality in the experiment with Chilo suppressalis [1] stood at 100%. Also, the mortality at 50 ppm with Nilaparvata lugens was 80%. For the same molecule, the mortality at 5 ppm in the experiment with Culex pipiens molestus was 80%.
With `CN(C)CC1CSC(C(=O)c2ccccc2)(C(=O)c2ccccc2)SC1.O=C(O)C(=O)O`, the mortality at 500 ppm was 0% in the experiment on Spodoptera litura and 100% with Tetranychus urticae. Moreover, in the experiment on Chilo suppressalis [1], the mortality worked out at 100%. Also, in the experiment with Nilaparvata lugens, the mortality at 50 ppm turned out to be 100%. Besides, in the experiment on Culex pipiens molestus, the mortality at 5 ppm stood at 100%.
With `CN(C)CC(CSC(=O)N(C)C)CSC(=O)N(C)C.O=C(O)C(=O)O`, the mortality at 500 ppm worked out at 0% in the experiment on Spodoptera litura and 100% in the experiment on Tetranychus urticae. For the same molecule, the mortality in the experiment on Chilo suppressalis [1] turned out to be 20%. Further, the mortality at 50 ppm in the experiment with Nilaparvata lugens amounted to 30%. In addition, the mortality at 5 ppm with Culex pipiens molestus amounted to 0%.
As to `CN(C)CC(S)CCS.O=C(O)C(=O)O` (centres undefined), the figures for the mortality at 500 ppm in the experiment on Spodoptera litura and in the experiment on Tetranychus urticae were 60% and 100%, respectively. Moreover, the mortality in the experiment on Chilo suppressalis [1] is 100%. Further, the mortality at 50 ppm in the experiment on Nilaparvata lugens was determined as 100%. Moreover, the mortality at 5 ppm in the experiment on Culex pipiens molestus amounted to 45%.
Take `CN(C)CC(CSS(=O)(=O)c1ccccc1)CSS(=O)(=O)c1ccccc1.O=C(O)C(=O)O`: the mortality at 500 ppm is 80% with Spodoptera litura and 100% in the experiment on Tetranychus urticae. In addition, in the experiment on Chilo suppressalis [1], the mortality was 100%. In the experiment with Nilaparvata lugens, the mortality at 50 ppm amounted to 100%. Moreover, the mortality at 5 ppm in the experiment on Culex pipiens molestus came out at 0%.
Regarding `CCC(=O)SCCC(CN(C)C)SC(=O)CC.O=C(O)C(=O)O` (centres undefined), the mortality at 500 ppm in the experiment on Spodoptera litura was found to be 40%; in the experiment on Tetranychus urticae it was 80%. In addition, the mortality in the experiment on Chilo suppressalis [1] is recorded as 100%. Moreover, the mortality at 50 ppm with Nilaparvata lugens is 70%. Moreover, the mortality at 5 ppm with Culex pipiens molestus is 20%.
On to `CN(C)CC(CCSC(=O)c1ccccc1)SC(=O)c1ccccc1.O.O=C(O)C(=O)O` (centres undefined), for which the mortality is 0% in the experiment with Spodoptera litura; 100% with Chilo suppressalis [1]; 100% in the experiment with Nilaparvata lugens; 100% in the experiment with Culex pipiens molestus; 100% with Tetranychus urticae.
For `CC(C)NC(=O)SCC(CSC(=O)NC(C)C)CN(C)C`, the mortality is listed as 0% in the experiment with Spodoptera litura; 100% in the experiment on Chilo suppressalis [1]; 20% with Nilaparvata lugens; 100% in the experiment on Culex pipiens molestus; 60% in the experiment with Tetranychus urticae.
With `CN(C)C(CSS(=O)(=O)c1ccccc1)CSS(=O)(=O)c1ccccc1` [BENSULTAP], in the experiment on Chilo suppressalis [2], the LD50 worked out at 3.7 mg/kg.
As for `CSCCC(CN(C)C)SC.O=C(O)C(=O)O` (centres undefined), the mortality at 500 ppm in the experiment with Spodoptera litura worked out at 0%. The mortality in the experiment on Chilo suppressalis [1] came out at 0%; in the experiment with Nilaparvata lugens, 30%; in the experiment on Tetranychus urticae, 100%. For the same molecule, in the experiment on Culex pipiens molestus, the mortality at 5 ppm worked out at 0%.
Regarding `CCOP(=O)(OCC)[C@]1(C#N)SC[C@H](CN(C)C)CS1.O=C(O)C(=O)O`, the mortality at 500 ppm in the experiment on Spodoptera litura was determined as 10%; in the experiment with Tetranychus urticae it was 100%. In addition, the mortality in the experiment on Chilo suppressalis [1] came out at 60%. In addition, the mortality at 50 ppm in the experiment on Nilaparvata lugens was determined as 80%. Also, in the experiment on Culex pipiens molestus, the mortality at 5 ppm was 100%.

One may read the mortality as the share of the test organisms that died. One may read the LD50 as the dose expected to kill half of the subjects tested.
